In patent publication US20020137929A1, “1 - (3-heterocyclylphenyl) isothiourea, -isourea, -guanidine and -amidine herbicidal agents” (Intellectual Property Department, BASF Aktiengesellschaft, priority 1998, published 2002):

What was measured:
[1] = system: AMBEL (Ragweed, Common); assay: Postemergence herbicidal evaluation; type: in vivo, Ambrosia artemisifolia; details: for AMBEL herbicidal rating: postemergence
In short: (§1)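 Each compound, dispersed in an acetone/water mix (50/50) carrying 0.5% TWEEN 20, is nozzle-sprayed at 40 psi on approximately two-week-old seedlings at about 0.0156–0.500 kg/ha. Plants are assessed 4–5 weeks afterward on a 0–9 scale relative to control; duplicate tests are averaged.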

[2] = system: GALAP (Galium); assay: Postemergence herbicidal evaluation; type: in vivo, Galium aparine; details: for GALAP herbicidal rating: postemergence
In short: as §1

[3] = system: TRZAWR (Wheat, Winter, cv Riband); assay: Postemergence herbicidal evaluation; type: in vivo, Triticum aestivum; details: for TRZAWR herbicidal rating: postemergence
In short: as §1

[4] = system: CHEAL (Lambsquarters, Common); assay: Preemergence herbicidal evaluation; type: in vivo, Chenopodium album; details: rated 4-5 weeks after treatment
In short: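 Herbicidal effect scored visually, 0-9, at 4 to 5 weeks against a control; compound applied preemergence by aqueous acetone spray to seeded soil at about 0.0156 to 0.500 kg/ha.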

[5] = system: MOOVA (Monochoria); assay: Postemergence weed control under flooded paddy conditions; type: in vivo, Monochoria vaginalis; details: postemergence weeds
In short: (§2)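 Injury ratings (0–9 scale covering stand, vigor, malformation, size, chlorosis and overall appearance versus control) were made three to four weeks after treatment. Test material, about 0.0313 to 0.500 kg/ha a.i. in 50/50 v/v aqueous/acetone, was added to flood water 1.5 to 3 cm deep over 3 to 5 cm weeds and 1.5 to 2.5 leaf rice.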

[6] = system: SAGPY (Arrowhead (Pygmaea)); assay: as above; type: in vivo, Sagittaria pygmaea; details: postemergence weeds
In short: as §2

[7] = rate 0.0313 kg/ha, 3-4 weeks after treatment
[8] = rate 0.0625 kg/ha, 3-4 weeks after treatment
[9] = rate 0.1250 kg/ha, 3-4 weeks after treatment
[10] = rate 0.2500 kg/ha, 3-4 weeks after treatment
[11] = Rate 0.0313 kg/ha, rated 3 to 4 weeks after treatment
[12] = Rate 0.0625 kg/ha, rated 3 to 4 weeks after treatment
[13] = Rate 0.1250 kg/ha, rated 3 to 4 weeks after treatment
[14] = Rate 0.2500 kg/ha, rated 3 to 4 weeks after treatment

Row | Structure (SMILES) | Preemergence herbicidal rating CHEAL ([4]; rate 0.0156 kg/ha) | Preemergence herbicidal rating CHEAL ([4]; rate 0.0313 kg/ha) | Preemergence herbicidal rating CHEAL ([4]; rate 0.0625 kg/ha) | Preemergence herbicidal rating CHEAL ([4]; rate 0.1250 kg/ha) | Preemergence herbicidal rating CHEAL ([4]; rate 0.2500 kg/ha) | Herbicidal rating MOOVA [5, 7] | Herbicidal rating MOOVA [5, 8] | Herbicidal rating MOOVA [5, 9] | Herbicidal rating MOOVA [5, 10] | Herbicidal rating SAGPY [6, 7] | Herbicidal rating SAGPY [6, 8] | Herbicidal rating SAGPY [6, 9] | Herbicidal rating SAGPY [6, 10] | Postemergence herbicidal rating AMBEL ([1]; Rate 0.0158 kg/ha) | Postemergence herbicidal rating AMBEL ([1]; Rate 0.0315 kg/ha) | Postemergence herbicidal rating AMBEL ([1]; Rate 0.0630 kg/ha) | Postemergence herbicidal rating GALAP ([2]; Rate 0.0158 kg/ha) | Postemergence herbicidal rating GALAP ([2]; Rate 0.0315 kg/ha) | Postemergence herbicidal rating GALAP ([2]; Rate 0.0630 kg/ha) | Postemergence herbicidal rating TRZAWR ([3]; Rate 0.0158 kg/ha) | also measured
1 | CCOC(=O)CN1C(=O)CSC1=Nc1cc(N2C(=O)C3=C(CCCC3)C2=O)c(F)cc1Cl [Compound 47, Ethyl 2-{[2-chloro-5-(1-cyclohexene-1,2-dicarboximido)-4-fluorophenyl]imino}-4-oxo-3-thiazolidineacetate] | 9.0 | 9.0 | 9.0 | 9.0 | 9.0 | 5.0 | 6.0 | 9.0 | 9.0 | 0.0 | 0.0 | 4.0 | 7.0 | – | – | – | – | – | – | – | Postemergence herbicidal rating AMBEL ([1]; Rate 0.0156 kg/ha): 3.0; Postemergence herbicidal rating AMBEL ([1]; Rate 0.0313 kg/ha): 9.0; Postemergence herbicidal rating AMBEL ([1]; Rate 0.0625 kg/ha): 9.0; Postemergence herbicidal rating GALAP ([2]; Rate 0.0156 kg/ha): 0.0; Postemergence herbicidal rating GALAP ([2]; Rate 0.0313 kg/ha): 3.0; Postemergence herbicidal rating GALAP ([2]; Rate 0.0625 kg/ha): 3.0; Postemergence herbicidal rating TRZAWR ([3]; Rate 0.0156 kg/ha): 2.5; Postemergence herbicidal rating TRZAWR ([3]; Rate 0.0313 kg/ha): 3.5; Postemergence herbicidal rating TRZAWR ([3]; Rate 0.0625 kg/ha): 4.5
2 | CCOC(=O)CN1C(=O)C(CC(=O)OC(C)C)SC1=Nc1cc(-n2c(=O)cc(C(F)(F)F)n(C)c2=O)c(F)cc1Cl (stereo not drawn) [Compound 60, 2-{{2-Chloro-5-[3,6-dihydro-3-methyl-2,6-dioxo-4-(trifluoromethyl)-1(2H)-pyrimidinyl]-4-fluoro-phenyl}imino}-4-oxo-3,5-thiazolidinediacetic acid, 3-ethyl isopropyl ester] | 9.0 | 8.0 | 9.0 | 9.0 | 9.0 | – | – | – | – | – | – | – | – | 7.0 | 9.0 | 9.0 | 0.0 | 2.0 | 5.0 | 4.5 | Postemergence herbicidal rating TRZAWR ([3]; Rate 0.0315 kg/ha): 4.5; Postemergence herbicidal rating TRZAWR ([3]; Rate 0.0630 kg/ha): 4.5; Preemergence herbicidal rating CHEAL ([4]; rate 0.5000 kg/ha): 9.0; Herbicidal rating MOOVA [5, 11]: 9.0; Herbicidal rating MOOVA [5, 12]: 9.0; Herbicidal rating MOOVA [5, 13]: 9.0; Herbicidal rating MOOVA [5, 14]: 9.0; Herbicidal rating SAGPY [6, 11]: 3.0; Herbicidal rating SAGPY [6, 12]: 4.0; Herbicidal rating SAGPY [6, 13]: 9.0; Herbicidal rating SAGPY [6, 14]: 9.0
3 | C#CCOC(=O)CC1SC(=Nc2cc(-n3c(=O)cc(C(F)(F)F)n(C)c3=O)c(F)cc2Cl)N(CC(=O)OCC)C1=O (stereo not drawn) [Compound 59, 2-{{2-Chloro-5-[3,6-dihydro-3-methyl-2,6-dioxo-4-(trifluoromethyl)-1(2H)-pyrimidinyl]-4-fluorophenyl}imino}-4-oxo-3,5-thiazolidinediacetic acid, 3-ethyl (2-propynyl) ester] | 9.0 | 9.0 | 9.0 | 9.0 | 9.0 | – | – | 0.0 | 9.0 | – | – | 0.0 | 3.0 | 9.0 | 9.0 | 9.0 | 6.0 | 6.0 | 9.0 | 8.0 | Postemergence herbicidal rating TRZAWR ([3]; Rate 0.0315 kg/ha): 8.0; Postemergence herbicidal rating TRZAWR ([3]; Rate 0.0630 kg/ha): 9.0; Preemergence herbicidal rating CHEAL ([4]; rate 0.5000 kg/ha): 9.0; Herbicidal rating MOOVA [5, 12]: 0.0; Herbicidal rating SAGPY [6, 12]: 0.0
4 | CCOC(=O)CN1C(=O)C(CC(=O)O)O/C1=N/c1cc(-n2c(=O)cc(C(F)(F)F)n(C)c2=O)c(F)cc1Cl (stereo not drawn) [Compound 41, 2-{{2-Chloro-5-[3,6-dihydro-3-methyl-2,6-dioxo-4-(trifluoromethyl)-1(2H)-pyrimidinyl]-4-fluoro-phenyl}imino}-4-oxo-3,5-oxazolidinediacetic acid, 3-ethyl ester] | 0.0 | 4.0 | 9.0 | 9.0 | 9.0 | 6.0 | 9.0 | 9.0 | 9.0 | 0.0 | 0.0 | 0.0 | 6.0 | 9.0 | 9.0 | 9.0 | 1.0 | 2.0 | 5.0 | 4.0 | Postemergence herbicidal rating TRZAWR ([3]; Rate 0.0315 kg/ha): 4.0; Postemergence herbicidal rating TRZAWR ([3]; Rate 0.0630 kg/ha): 5.0
5 | CCOC(=O)CN1C(=O)C(F)SC1=Nc1cc(-n2c(=O)cc(C(F)(F)F)n(C)c2=O)c(F)cc1Cl (stereo not drawn) [Compound 11, Ethyl 2-{{2-chloro-5-[3,6-dihydro-3-methyl-2,6-dioxo-4-(trifluoromethyl)-1(2H)-pyrimidinyl]-4-fluorophenyl}imino}-5-fluoro-4-oxo-3-thiazolidineacetate] | – | – | – | – | – | 0.0 | 1.0 | 4.0 | 7.0 | 0.0 | 0.0 | 0.0 | 0.0 | – | – | – | – | – | – | – | AMBEL herbicidal rating ([1]; rate 0.0156 kg/ha): 1.0; AMBEL herbicidal rating ([1]; rate 0.0313 kg/ha): 9.0; AMBEL herbicidal rating ([1]; rate 0.0625 kg/ha): 9.0; AMBEL herbicidal rating ([1]; rate 0.1250 kg/ha): 9.0; GALAP herbicidal rating ([2]; rate 0.0156 kg/ha): 3.0; GALAP herbicidal rating ([2]; rate 0.0313 kg/ha): 5.0; GALAP herbicidal rating ([2]; rate 0.0625 kg/ha): 6.0; GALAP herbicidal rating ([2]; rate 0.1250 kg/ha): 6.0; TRZAWR herbicidal rating ([3]; rate 0.0156 kg/ha): 4.5; TRZAWR herbicidal rating ([3]; rate 0.0313 kg/ha): 4.5; TRZAWR herbicidal rating ([3]; rate 0.0625 kg/ha): 5.5; TRZAWR herbicidal rating ([3]; rate 0.1250 kg/ha): 6.0; CHEAL preemergence herbicidal rating ([4]; rate 0.0156 kg/ha): 7.5; CHEAL preemergence herbicidal rating ([4]; rate 0.0313 kg/ha): 9.0; CHEAL preemergence herbicidal rating ([4]; rate 0.0625 kg/ha): 9.0; CHEAL preemergence herbicidal rating ([4]; rate 0.1250 kg/ha): 9.0; CHEAL preemergence herbicidal rating ([4]; rate 0.2500 kg/ha): 9.0
6 | CCOC(=O)CN1C(=O)C(C)SC1=Nc1cc(-n2c(=O)cc(C(F)(F)F)n(C)c2=O)c(F)cc1Cl (stereo not drawn) [Compound 12] | – | – | – | – | – | 9.0 | 9.0 | 9.0 | 9.0 | 0.0 | 1.0 | 4.0 | 0.0 | – | – | – | – | – | – | – | AMBEL herbicidal rating ([1]; rate 0.0156 kg/ha): 7.0; AMBEL herbicidal rating ([1]; rate 0.0313 kg/ha): 9.0; AMBEL herbicidal rating ([1]; rate 0.0625 kg/ha): 7.0; AMBEL herbicidal rating ([1]; rate 0.1250 kg/ha): 9.0; GALAP herbicidal rating ([2]; rate 0.0156 kg/ha): 3.0; GALAP herbicidal rating ([2]; rate 0.0313 kg/ha): 5.0; GALAP herbicidal rating ([2]; rate 0.0625 kg/ha): 7.0; GALAP herbicidal rating ([2]; rate 0.1250 kg/ha): 8.0; TRZAWR herbicidal rating ([3]; rate 0.0156 kg/ha): 5.5; TRZAWR herbicidal rating ([3]; rate 0.0313 kg/ha): 7.0; TRZAWR herbicidal rating ([3]; rate 0.0625 kg/ha): 7.5; TRZAWR herbicidal rating ([3]; rate 0.1250 kg/ha): 7.5; CHEAL preemergence herbicidal rating ([4]; rate 0.0156 kg/ha): 9.0; CHEAL preemergence herbicidal rating ([4]; rate 0.0313 kg/ha): 9.0; CHEAL preemergence herbicidal rating ([4]; rate 0.0625 kg/ha): 9.0; CHEAL preemergence herbicidal rating ([4]; rate 0.1250 kg/ha): 9.0; CHEAL preemergence herbicidal rating ([4]; rate 0.2500 kg/ha): 9.0
